How the values were obtained:
[1] = target: T1, PPARα (Homo sapiens, UniProt Q07869); assay: PPARα reporter (CTF)/functional assay in CV1 cells; format: cell-based; conditions: examined up to 10 μM; efficacy <20% considered negative
T1 construct: expressed in transfected cells; host or cells: CV1 (African green monkey kidney)
T1 sequence (Q07869 239-466 limits assumed): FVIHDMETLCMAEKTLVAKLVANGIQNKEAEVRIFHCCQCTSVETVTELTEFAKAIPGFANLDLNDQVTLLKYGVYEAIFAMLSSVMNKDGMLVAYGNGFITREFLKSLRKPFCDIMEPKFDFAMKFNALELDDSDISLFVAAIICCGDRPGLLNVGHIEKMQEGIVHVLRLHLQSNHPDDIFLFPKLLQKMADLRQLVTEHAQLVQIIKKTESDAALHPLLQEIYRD
Excerpt: Because GPR-40 is known to be activated by ligands to PPARγ, exemplified compounds are examined in PPARα, PPARδ, and PPARγ reporter assays to determine the selectivity of an exemplified compound. CV1 cells, which are derived from the renal tissue of an African green monkey, are transfected with various receptor and reporter plasmids using Fugene. For the PPARα and PPARδ assays, a reporter plasmid containing five tandem copies of the yeast transcription protein Gal4 response element, cloned upstream of a firefly luciferase gene driven by the major late promoter of adenovirus, is transfected together with a Simian Virus 40 (SV40) driven plasmid constitutively expressing a hybrid protein containing the Gal4 DNA binding domain (DBD), and either the PPARα or PPARδ ligand binding domain. For the PPARγ assay, plasmids encoding PPARγ and RXRα, both driven by a cytomegalovirus (CMV) promoter are transfected together with a plasmid containing luciferase reporter cDNA driven by the TK promoter and a receptor response element (2×PPRE). […] After 24 hours incubation with compound, cells are lysed and luciferase activity is determined as a measure of receptor activation by luminescence. […] The maximum percent stimulation is determined versus maximum stimulation obtained with 10 μM of an appropriate PPAR agonist reference compound. […]

[2] = tested on: Zucker fa/fa rats; assay: Chronic oral glucose tolerance test (OGTT); format: in vivo, rat
Procedure: OGTTs are performed in Zucker fa/fa rats, a rodent model of insulin resistance, after 1 and 21 days of orally administered exemplified compound at 1.0, 3.0 and 10 mg/kg. A standard GPR-40 agonist at 1 mg/kg serves as the positive control. OGTTs are performed one hour post compound administration with blood samples taken for determination of glucose and insulin levels at 10, 20, 40, 60, and 120 minutes post glucose administration. […] Weight and food consumption are not altered due to any treatment during the study.

[3] = target: T2, mGPR-40 (mFFAR1) (Mus musculus, UniProt Q76JU9); assay: Mouse beta-arrestin agonist assay with 1% FBS; format: cell-based
T2 construct: host or cells: U2OS
T2 sequence (Q76JU9 whole entry): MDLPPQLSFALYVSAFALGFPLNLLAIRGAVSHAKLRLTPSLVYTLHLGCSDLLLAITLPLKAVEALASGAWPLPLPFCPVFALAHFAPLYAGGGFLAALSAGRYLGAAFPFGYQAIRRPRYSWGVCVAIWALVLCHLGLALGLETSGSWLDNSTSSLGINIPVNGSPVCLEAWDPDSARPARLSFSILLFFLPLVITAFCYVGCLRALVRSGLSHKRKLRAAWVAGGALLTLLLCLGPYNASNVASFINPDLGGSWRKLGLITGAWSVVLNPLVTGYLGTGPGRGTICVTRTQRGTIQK
T2 sequence (P32121 whole entry partner): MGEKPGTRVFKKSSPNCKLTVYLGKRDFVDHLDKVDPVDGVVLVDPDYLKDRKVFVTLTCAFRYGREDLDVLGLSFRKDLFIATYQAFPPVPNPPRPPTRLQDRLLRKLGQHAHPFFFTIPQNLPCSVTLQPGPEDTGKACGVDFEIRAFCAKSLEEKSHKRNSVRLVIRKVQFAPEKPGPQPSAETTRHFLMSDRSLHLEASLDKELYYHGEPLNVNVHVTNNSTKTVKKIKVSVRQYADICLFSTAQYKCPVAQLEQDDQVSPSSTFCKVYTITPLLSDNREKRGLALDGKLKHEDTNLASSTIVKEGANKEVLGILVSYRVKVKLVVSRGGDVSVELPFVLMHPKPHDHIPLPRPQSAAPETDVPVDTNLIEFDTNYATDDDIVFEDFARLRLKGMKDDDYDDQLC
Excerpt: Human embryonic kidney (hEK293)-hFFAR1 cells are purchased from DiscoveRx™. Human osteosarcoma (U2OS) cells expressing mFFAR1 are developed by DiscoveRX™. These cells co-express the Prolink™ (PK)-tagged GPR-40 and the Enzyme Acceptor™ (EA)-tagged beta-arrestin fusion proteins. If activation of the GPR-40 stimulates beta-arrestin recruitment, it would force complementation of the beta galactosidase (B-gal) enzyme fragments, forming a B-gal enzyme that generates a chemiluminescent signal using the DiscoveRx PathHunter™ detection kit. Cells are incubated overnight at 5,000 cells/well in 384 well plates in culture media containing 1% FBS (fetal bovine serum). Serial diluted compound in DMSO (2× dilutions to generate 20 concentrations) are step down diluted in culture media containing 1% FBS (fetal bovine serum) and added to cells with a final top concentration starting of 100 μM. After addition of compound, cells are incubated for 90 min at 37° C. in 5% CO2 incubator, and DiscoveRX™ kit detection reagents are added. Measurement of the chemiluminescent signal is ascertained with the Envision™ reader, after a 1-hour incubation at room temperature. Data are fit to a 4 parameter-fit logistics to determine EC50 values, % activity is measured versus maximum response to an internal standard GPR-40 agonist at 1 μM.

functional activation of PPARα [1]: No functional activation
EC50 ([3]; U2OS cells expressing mFFAR1, 1% FBS, 90 min, read-out: mGPR-40 b-arrestin EC50): 3.63 nM
mGPR-40 b-arrestin % stimulation max (FA) ([3]; versus internal standard GPR-40 agonist at 1 μM): 153%
SMILES: CC#C[C@@H](CC(=O)O)c1ccc(OCc2ccc3nc(-c4c(C)cccc4C)nn3c2)cc1 [Example 1, (3S)-3-[4-[[2-(2,6-Dimethylphenyl)-[1,2,4]triazolo[1,5-a]pyridin-6-yl]methoxy]phenyl]hex-4-ynoic acid]
Weight and food consumption ([2]; 21 days oral administration, any treatment): not altered
ED90 for glucose lowering ([2]; day 1, oral): 4.1 mg/kg
ED90 for glucose lowering ([2]; day 21, oral): 5.0 mg/kg
AUCs for glucose lowering ([2]; days 1 and 21, oral 1, 3 and 10 mg/kg, p<0.05): statistically significant
Insulin AUCs during the OGTTs ([2]; oral 1, 3 and 10 mg/kg, values not statistically significant): dose dependent elevation

Source: patent US9120793B2, “Triazolo-pyridine compound” (Eli Lilly and Company, priority 2013, dated 2015)
